Reference: US4686308A, “Novel physiologically active substance MH435” (Microbial Chemistry Research Foundation, priority 1985, dated 1987)
≈ marks a conversion by molar mass, not a printed value.

Assays:
[1] = target: T1, tyrosine specific protein kinase in the epidermal growth factor receptor (Homo sapiens, UniProt P00533); assay: Inhibitory activity against tyrosine specific protein kinase (epidermal growth factor receptor kinase), A-431 membrane fraction; assay type: biochemical; settings: EGF, 0° C., 30 min, read-out: 50% inhibitory concentration (tyrosine specific protein kinase) (converted)
T1 construct: membrane fraction of human epithelial carcinoma cells A-431; endogenous in cells; host or cells: A-431 human epithelial carcinoma cells, membrane fraction
T1 sequence (P00533 25-1210): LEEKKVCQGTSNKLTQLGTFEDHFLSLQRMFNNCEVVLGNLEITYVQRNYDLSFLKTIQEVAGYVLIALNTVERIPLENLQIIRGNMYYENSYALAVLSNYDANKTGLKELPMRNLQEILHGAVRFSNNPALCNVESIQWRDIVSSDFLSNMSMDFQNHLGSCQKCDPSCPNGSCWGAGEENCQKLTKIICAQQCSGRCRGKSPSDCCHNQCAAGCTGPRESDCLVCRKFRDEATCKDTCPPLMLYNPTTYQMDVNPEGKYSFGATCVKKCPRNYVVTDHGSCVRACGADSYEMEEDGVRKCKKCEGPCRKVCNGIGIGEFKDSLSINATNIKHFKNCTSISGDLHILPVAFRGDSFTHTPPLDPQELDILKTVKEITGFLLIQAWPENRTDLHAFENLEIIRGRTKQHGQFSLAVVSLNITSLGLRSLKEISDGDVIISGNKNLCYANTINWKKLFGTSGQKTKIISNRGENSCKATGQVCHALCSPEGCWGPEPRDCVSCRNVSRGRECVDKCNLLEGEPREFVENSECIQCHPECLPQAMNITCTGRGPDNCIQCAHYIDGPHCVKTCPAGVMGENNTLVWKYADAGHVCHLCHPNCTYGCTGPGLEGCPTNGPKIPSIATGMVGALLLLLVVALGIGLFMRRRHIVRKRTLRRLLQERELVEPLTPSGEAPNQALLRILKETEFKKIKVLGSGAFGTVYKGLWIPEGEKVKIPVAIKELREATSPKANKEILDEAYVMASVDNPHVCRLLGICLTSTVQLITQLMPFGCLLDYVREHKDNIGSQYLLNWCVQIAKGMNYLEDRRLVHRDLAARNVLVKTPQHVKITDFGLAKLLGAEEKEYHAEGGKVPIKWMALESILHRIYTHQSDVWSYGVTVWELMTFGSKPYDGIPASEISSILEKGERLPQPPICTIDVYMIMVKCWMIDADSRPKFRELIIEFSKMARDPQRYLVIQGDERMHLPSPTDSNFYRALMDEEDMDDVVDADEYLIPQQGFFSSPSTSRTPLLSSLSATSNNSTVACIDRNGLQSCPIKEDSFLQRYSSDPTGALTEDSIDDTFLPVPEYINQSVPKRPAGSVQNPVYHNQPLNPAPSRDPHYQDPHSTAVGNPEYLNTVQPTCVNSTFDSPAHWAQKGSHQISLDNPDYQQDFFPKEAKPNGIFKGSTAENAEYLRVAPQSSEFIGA
Experimental: In the above processes of incubation and purification, MH435 was traced by detecting the inhibition activity thereof by measuring the tyrosine specific protein kinase in test samples in accordance with the following method.
[Measurement of tyrosine specific protein kinase activity]
The measurement of tyrosin specific protein kinase activity was carried out by modifying the method of measuring enzyme activity described by G. Carpenter et al. in The Journal of Biological Chemistry, 254, 4874-4891 (1979) using the membrane fraction of human epithelial carcinoma cells A-431 with respect to the tyrosine specific protein kinase in the epidermal growth factor receptor. […] Then, ^32 P adsorbed on the filter paper was measured by counting the radioactivity (a). At the same time, count (b) was measured for the reaction product which was obtained by the same reaction and treated in the same manner as above except that the test sample was excluded, while counts (a') and (b') were measured for the reaction products in which the membrane fractions were further excluded, respectively. The inhibitory ratio with respect to the epidermal growth factor receptor kinase was then calculated from the equation

S. aureus MS9610 = assay: Antimicrobial activity, agar dilution method; assay type: cell-based; settings: Staphylococcus aureus, Muller-Hinton agar dilution
Text: (§1) Minimum inhibitory concentrations (MIC) of the substance against various bacteria determined by the agar dilution method using Muller-Hinton culture medium are shown in the following Table 4.

Serr. marcessens = assay: Antimicrobial activity, agar dilution method; assay type: cell-based; settings: Muller-Hinton agar dilution
Text: as §1

Coryn. bovis 1810 = assay: Antimicrobial activity, agar dilution method; assay type: cell-based; settings: Corynebacterium bovis, Muller-Hinton agar dilution
Text: as §1

S. aureus 209 P = assay: Antimicrobial activity, agar dilution method; assay type: cell-based; settings: Staphylococcus aureus, Muller-Hinton agar dilution
Text: as §1

S. aureus MS8710 = assay: Antimicrobial activity, agar dilution method; assay type: cell-based; settings: Staphylococcus aureus, Muller-Hinton agar dilution
Text: as §1

B. cereus ATCC 10702 = assay: Antimicrobial activity, agar dilution method; assay type: cell-based; settings: Bacillus cereus, ATCC10702, Muller-Hinton agar dilution
Text: as §1

E. coli NIHJ = assay: Antimicrobial activity, agar dilution method; assay type: cell-based; settings: Escherichia coli, Muller-Hinton agar dilution
Text: as §1

S. aureus Smith = assay: Antimicrobial activity, agar dilution method; assay type: cell-based; settings: Staphylococcus aureus, Muller-Hinton agar dilution
Text: as §1

M. lysodelkticus IFO 333 = assay: Antimicrobial activity, agar dilution method; assay type: cell-based; settings: Muller-Hinton agar dilution
Text: as §1

Pseu. aeruginosa A3 = assay: Antimicrobial activity, agar dilution method; assay type: cell-based; settings: Pseudomonas aeruginosa, Muller-Hinton agar dilution
Text: as §1

B. Subtilis PCI 219 = assay: Antimicrobial activity, agar dilution method; assay type: cell-based; settings: Bacillus subtilis, Muller-Hinton agar dilution
Text: as §1

K. pneumoniae PCI 602 = assay: Antimicrobial activity, agar dilution method; assay type: cell-based; settings: Klebsiella pneumoniae, PCI602, Muller-Hinton agar dilution
Text: as §1

Prot. vulgaris OX19 = assay: Antimicrobial activity, agar dilution method; assay type: cell-based; settings: Proteus vulgaris, Muller-Hinton agar dilution
Text: as §1

Sal. typhi T-63 = assay: Antimicrobial activity, agar dilution method; assay type: cell-based; settings: Salmonella enterica
Text: as §1

Acute toxicity (LD50) = settings: mouse, in vivo, ip
Ki-NRK cells = assay: Effects on cultured carcinoma cells: Ki-NRK; assay type: cell-based; settings: 72 h, 3 days, 37° C., cell count
Experimental: (§2) IC50 was measured by inoculating the respective cells in dished (3-5×10^4 cells/dish), incubating the cells for 1 day (at 37° C.; CO2 concentration, 5%), then adding the substance MH435-A, further incubating the resultant mixture for 3 days under the same conditions and finally counting the number of the cells.

L1210 leukemia cells = assay: Effects on cultured carcinoma cells: L1210; assay type: cell-based; settings: Mus musculus, 72 h, 3 days, 37° C., cell count
Experimental: as §2

A-431 cells = assay: Effects on cultured carcinoma cells: A-431; assay type: cell-based; settings: Homo sapiens, 72 h, 3 days, 37° C., cell count
Experimental: as §2

[2] = system: ts Src-NRK (at 39° C.) normal form; assay: Effects on cultured carcinoma cells: ts Src-NRK (at 39° C.) normal form; assay type: cell-based; settings: 72 h, 3 days, cell count
[3] = system: ts Src-NRK (at 33° C.) carcinoma form; assay: Effects on cultured carcinoma cells: ts Src-NRK (at 33° C.) carcinoma form; assay type: cell-based; settings: 72 h, 3 days, cell count
IMC carcinoma cells = assay: Effects on cultured carcinoma cells: IMC carcinoma; assay type: cell-based; settings: 72 h, 3 days, 37° C., cell count
Experimental: as §2

| Compound | IC50 [1] | MIC (S. aureus MS9610) | MIC (Serr. marcessens) | MIC (Coryn. bovis 1810) | MIC (S. aureus 209 P) | MIC (S. aureus MS8710) | MIC (B. cereus ATCC 10702) | MIC (E. coli NIHJ) | MIC (S. aureus Smith) | MIC (M. lysodelkticus IFO 333) | MIC (Pseu. aeruginosa A3) | MIC (B. Subtilis PCI 219) | MIC (K. pneumoniae PCI 602) | MIC (Prot. vulgaris OX19) | MIC (Sal. typhi T-63) | further results |
| --- | --- | --- | --- | --- | --- | --- | --- | --- | --- | --- | --- | --- | --- | --- | --- | --- |
| O=CNCCc1cc(O)ccc1O [MH435-B] | 33.1 µM | 50 µg/mL (≈ 276 µM) | 100 µg/mL (≈ 552 µM) | 100 µg/mL (≈ 552 µM) | 50 µg/mL (≈ 276 µM) | 50 µg/mL (≈ 276 µM) | 100 µg/mL (≈ 552 µM) | 100 µg/mL (≈ 552 µM) | 50 µg/mL (≈ 276 µM) | 50 µg/mL (≈ 276 µM) | 50 µg/mL (≈ 276 µM) | 100 µg/mL (≈ 552 µM) | 100 µg/mL (≈ 552 µM) | 50 µg/mL (≈ 276 µM) | 100 µg/mL (≈ 552 µM) | – |
| O=CNC=Cc1cc(O)ccc1O [MH435-A] | 3.07 µM | 50 µg/mL (≈ 279 µM) | 100 µg/mL (≈ 558 µM) | 100 µg/mL (≈ 558 µM) | 50 µg/mL (≈ 279 µM) | 50 µg/mL (≈ 279 µM) | 100 µg/mL (≈ 558 µM) | 100 µg/mL (≈ 558 µM) | 25 µg/mL (≈ 140 µM) | 50 µg/mL (≈ 279 µM) | 25 µg/mL (≈ 140 µM) | 100 µg/mL (≈ 558 µM) | 100 µg/mL (≈ 558 µM) | 100 µg/mL (≈ 558 µM) | 100 µg/mL (≈ 558 µM) | LD50 (Acute toxicity (LD50)): ≥ 200 mg/kg; IC50 (Ki-NRK cells): 1.7 µg/mL (≈ 9.49 µM); IC50 (L1210 leukemia cells): 2.41 µg/mL (≈ 13.5 µM); IC50 (A-431 cells): 3.6 µg/mL (≈ 20.1 µM); IC50 [2]: 3.6 µg/mL (≈ 20.1 µM); IC50 [3]: 2 µg/mL (≈ 11.2 µM); IC50 (IMC carcinoma cells): 3.01 µg/mL (≈ 16.8 µM) |
